The record followed here is ChEMBL document CHEMBL1201862, “PubChem BioAssay data set” (2004).

Test systems include IGROV-1; M14; OVCAR-4; HCT-15; HT-29; SF-295; HCT-116; OVCAR-3; HOP-92; SR; U-251; 786-0; TK-10; Malme-3M; NCI-H226; CAKI-1.
Assay in all cases: inhibition of tumour cell growth, NCI panel, 48 h

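These data come from cells grown in 96-well plates and exposed to compound for 48 hours at five concentrations. GI50 = concentration required for 50% inhibition of growth.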 Calls of active or inactive are those of the source. No stated cut-off is given here; in the data, active = GI50 up to about 1.1 µM and inactive = higher.

Regarding `CN(C)CCCNc1ccc2ncn3c4ccccc4c(=O)c1c23`, the GI50 in the experiment on IGROV-1 was 7.66 µM (inactive); with M14, 9.66 µM (inactive); in the experiment with OVCAR-4 it was 21.9 µM (inactive); with HCT-15, 8.53 µM; in the experiment on HT-29, 4.88 µM (inactive); in the experiment with SF-295, 6.3 µM (inactive). Moreover, the GI50 is 3.48 µM (inactive) in the experiment on HCT-116; 16 µM (inactive) in the experiment on OVCAR-3; 5.9 µM (inactive) in the experiment with HOP-92; 2.94 µM (inactive) with SR; 11.4 µM (inactive) with U-251; 4.52 µM (inactive) in the experiment on 786-0. Moreover, the GI50 in the experiment on TK-10 is 14.8 µM (inactive); in the experiment with Malme-3M, 13.7 µM (inactive); in the experiment on NCI-H226, 7.21 µM (inactive).

Consider `CC(C)(C)/N=C\N1CCC(C(c2ccccc2)c2ccccc2)CC1`, for which the GI50 was > 100 µM (inactive) with IGROV-1; 46.8 µM (inactive) in the experiment with OVCAR-4; 55.3 µM in the experiment with HCT-15; 21.6 µM (inactive) in the experiment on HT-29; 42.4 µM (inactive) with CAKI-1; > 100 µM (inactive) in the experiment on SF-295. Moreover, the GI50 in the experiment with HCT-116 was 50 µM (inactive); with OVCAR-3, 80.5 µM (inactive); in the experiment on HOP-92, 31.7 µM (inactive); in the experiment on U-251, 60.4 µM (inactive); with 786-0 it was > 100 µM (inactive); in the experiment with TK-10 it was 40.6 µM (inactive). For the same molecule, in the experiment with Malme-3M, the GI50 is 18.2 µM (inactive).

As to `O=C(c1ccccc1)c1cn(/N=C\c2ccccc2)c(=O)nc1-c1ccccc1`, the GI50 with M14 is > 100 µM (inactive); with OVCAR-4 it was > 100 µM (inactive); with HCT-15 it was above 100 µM; in the experiment on HT-29, > 100 µM (inactive); in the experiment on SF-295, > 100 µM (inactive); in the experiment with HCT-116, > 100 µM (inactive). The GI50 in the experiment with OVCAR-3 is > 100 µM (inactive); in the experiment with HOP-92, 92.9 µM (inactive); in the experiment with U-251, > 100 µM (inactive); in the experiment with 786-0, > 100 µM (inactive); in the experiment with TK-10, > 100 µM (inactive); with Malme-3M, > 100 µM (inactive). Also, the GI50 with NCI-H226 is > 100 µM (inactive).

For `CCn1c(SC(C)C(=O)c2c(C)n(C)n(-c3ccccc3)c2=O)nc2ccccc2c1=O` (stereo not drawn), the GI50 is > 100 µM (inactive) with IGROV-1; > 100 µM (inactive) with M14; > 100 µM (inactive) with OVCAR-4; above 100 µM in the experiment on HCT-15; > 100 µM (inactive) in the experiment on HT-29; > 100 µM (inactive) in the experiment with SF-295. The GI50 was > 100 µM (inactive) in the experiment with HCT-116; > 100 µM (inactive) in the experiment with OVCAR-3; 4.47 µM (inactive) with HOP-92; > 100 µM (inactive) with SR; > 100 µM (inactive) in the experiment on U-251; > 100 µM (inactive) in the experiment with 786-0. The GI50 with TK-10, with Malme-3M and in the experiment with NCI-H226 was > 100 µM (inactive) in each case.

Regarding `CC1c2[nH]c3ccccc3c2CCN1O` (stereo not drawn), the GI50 is > 100 µM (inactive) in the experiment with IGROV-1; > 100 µM (inactive) in the experiment on M14; > 100 µM (inactive) in the experiment with OVCAR-4; above 100 µM with HCT-15; > 100 µM (inactive) with HT-29; > 100 µM (inactive) in the experiment on CAKI-1. Moreover, the GI50 with SF-295, in the experiment on HCT-116, in the experiment with OVCAR-3, in the experiment with HOP-92, in the experiment with U-251 and with 786-0 was > 100 µM (inactive) in each case. Besides, the GI50 in the experiment on TK-10 is > 100 µM (inactive); with Malme-3M it was > 100 µM (inactive); with NCI-H226 it was 23.1 µM (inactive).

With `CN(C)c1n/c(=N/c2ccc3c(c2)OCO3)ss1`, the GI50 in the experiment with IGROV-1 is > 100 µM (inactive); with M14, > 100 µM (inactive); in the experiment with OVCAR-4, > 100 µM (inactive); in the experiment with HCT-15, 40.4 µM; in the experiment with HT-29, 38.5 µM (inactive); in the experiment with CAKI-1, 97.7 µM (inactive). In addition, the GI50 is > 100 µM (inactive) in the experiment on SF-295; 49 µM (inactive) in the experiment on HCT-116; 56.5 µM (inactive) in the experiment with HOP-92; 37.6 µM (inactive) with U-251; 70.6 µM (inactive) in the experiment on 786-0; > 100 µM (inactive) in the experiment with TK-10. In addition, the GI50 with Malme-3M and in the experiment on NCI-H226 was > 100 µM (inactive) in each case.

As to `NC(=O)C12CCC1C1CCCCC12N1CCOCC1` (stereo not drawn), the GI50 with IGROV-1 was > 100 µM (inactive); in the experiment on M14, > 100 µM (inactive); in the experiment with OVCAR-4 it was > 100 µM (inactive); in the experiment with HCT-15, above 100 µM; with HT-29, > 100 µM (inactive); in the experiment on CAKI-1 it was > 100 µM (inactive). Besides, the GI50 in the experiment on SF-295, in the experiment with HCT-116, in the experiment with OVCAR-3, in the experiment with HOP-92, in the experiment on SR and in the experiment on U-251 was > 100 µM (inactive) throughout. Besides, the GI50 in the experiment on 786-0, in the experiment on TK-10 and in the experiment on Malme-3M was > 100 µM (inactive) throughout.

Turning to `CC1(C)CC2(S(=O)(=O)c3ccccc3)ON1CC2S(=O)(=O)c1ccccc1` (stereo not drawn), the GI50 is > 100 µM (inactive) in the experiment with IGROV-1; > 100 µM (inactive) in the experiment on M14; 54.6 µM (inactive) in the experiment with OVCAR-4; above 100 µM in the experiment with HCT-15; > 100 µM (inactive) with HT-29; 77.3 µM (inactive) with CAKI-1. In addition, the GI50 is > 100 µM (inactive) in the experiment with SF-295; > 100 µM (inactive) in the experiment with HCT-116; > 100 µM (inactive) in the experiment with OVCAR-3; 39.4 µM (inactive) with SR; > 100 µM (inactive) in the experiment with U-251; > 100 µM (inactive) in the experiment on 786-0. The GI50 with TK-10, in the experiment with Malme-3M and in the experiment on NCI-H226 was > 100 µM (inactive) each time.

Consider `CCCCCCCCCCCCCCC(C)CCC(=O)O` (stereo not drawn), for which the GI50 with IGROV-1 is > 100 µM (inactive); in the experiment on OVCAR-4, > 100 µM (inactive); in the experiment on HT-29, 34.5 µM (inactive); with CAKI-1, > 100 µM (inactive); in the experiment with SF-295, > 100 µM (inactive); in the experiment with HCT-116, 36.8 µM (inactive). For the same molecule, the GI50 with OVCAR-3 was 68.7 µM (inactive); in the experiment with HOP-92, 62.5 µM (inactive); in the experiment with U-251, 52.5 µM (inactive); in the experiment on 786-0 it was 80.9 µM (inactive); in the experiment on TK-10, > 100 µM (inactive); in the experiment on Malme-3M, > 100 µM (inactive). In addition, the GI50 with NCI-H226 was > 100 µM (inactive).

Turning to `Cc1cn2c(=O)c3ncn(C4OC(CO)C(O)C4O)c3n(C)c2n1` (stereo not drawn), the GI50 was > 100 µM (inactive) in the experiment with IGROV-1; > 100 µM (inactive) with M14; > 100 µM (inactive) in the experiment on OVCAR-4; above 100 µM with HCT-15; > 100 µM (inactive) with HT-29; > 100 µM (inactive) in the experiment with CAKI-1. Further, the GI50 with SF-295, in the experiment on HCT-116, in the experiment on OVCAR-3, in the experiment on HOP-92, with U-251 and in the experiment on 786-0 was > 100 µM (inactive) each time. The GI50 in the experiment with TK-10, with Malme-3M and with NCI-H226 was > 100 µM (inactive) each time.

Take `O=C1c2ccccc2C(=O)c2sc(Nc3cccc(Cl)c3)nc21`: the GI50 with IGROV-1 is 2.07 µM (inactive); in the experiment with M14, 1.82 µM (inactive); in the experiment with OVCAR-4, 1.45 µM (inactive); in the experiment on HCT-15, 1.88 µM; in the experiment with HT-29 it was 3.34 µM (inactive); with CAKI-1, 2.04 µM (inactive). Besides, the GI50 with SF-295 is 1.62 µM (inactive); in the experiment with HCT-116 it was 1.82 µM (inactive); with OVCAR-3, 1.12 µM (active); in the experiment on SR, 2.34 µM (inactive); in the experiment on U-251, 1.31 µM (inactive); with 786-0 it was 1.56 µM (inactive). The results for the GI50 in the experiment with TK-10, in the experiment on Malme-3M and in the experiment on NCI-H226 were 2.88 µM (inactive), 1.52 µM (inactive) and 3.96 µM (inactive), respectively.

On to `O=c1c2ccccc2c(=O)c2c1cc(Cl)c1[nH]c3c([nH]c12)c(Cl)cc1c(=O)c2ccccc2c(=O)c13`, for which the GI50 is > 100 µM (inactive) in the experiment on IGROV-1; > 100 µM (inactive) in the experiment on M14; > 100 µM (inactive) in the experiment with OVCAR-4; above 100 µM in the experiment on HCT-15; > 100 µM (inactive) in the experiment with HT-29; > 100 µM (inactive) with CAKI-1. Also, the GI50 with SF-295, in the experiment with HCT-116, with OVCAR-3, in the experiment on U-251, with 786-0 and in the experiment with TK-10 was > 100 µM (inactive) in each case. Besides, the GI50 in the experiment on Malme-3M and in the experiment with NCI-H226 was > 100 µM (inactive) throughout.

With `O/N=C1/C(=C/c2ccc3c(c2)OCO3)CCCC1C(NO)c1ccc2c(c1)OCO2` (stereo not drawn), the GI50 in the experiment on IGROV-1 was 28.2 µM (inactive); in the experiment with M14, 19.5 µM (inactive); in the experiment with OVCAR-4, 24.6 µM (inactive); in the experiment with HCT-15, 32 µM; in the experiment with HT-29 it was 16.7 µM (inactive); in the experiment with CAKI-1, 28.6 µM (inactive). In addition, the GI50 was 17.3 µM (inactive) in the experiment on HCT-116; 14.6 µM (inactive) with OVCAR-3; 20.8 µM (inactive) in the experiment with U-251; 28.9 µM (inactive) in the experiment with 786-0; 26.1 µM (inactive) in the experiment on TK-10; 22 µM (inactive) in the experiment on Malme-3M.

Take `O=C(O)CN(c1ccccc1)S(=O)(=O)c1cccc([N+](=O)[O-])c1`: the GI50 was > 100 µM (inactive) with IGROV-1; > 100 µM (inactive) with M14; > 100 µM (inactive) in the experiment on OVCAR-4; above 100 µM with HCT-15; > 100 µM (inactive) with HT-29; > 100 µM (inactive) in the experiment with CAKI-1. The GI50 with SF-295, in the experiment on OVCAR-3, in the experiment on HOP-92, in the experiment on U-251, with 786-0 and in the experiment with TK-10 was > 100 µM (inactive) throughout. The GI50 with Malme-3M and in the experiment with NCI-H226 was > 100 µM (inactive) each time.
